Where a chain is given by its changes, count along the chain named. Like-named read-outs stand apart in the source and are kept apart here.

Four compounds from patent publication US8129197B2, “Cholesterol loaded insect cell membranes as test proteins” (SOLVO Biotechnológial ZRT., priority 2006, dated 2012) can be followed below.

Data set [1] addresses T1, mouseBsep (Mus musculus, UniProt Q9QY30).
T1 sequence (Q9QY30 1-1321): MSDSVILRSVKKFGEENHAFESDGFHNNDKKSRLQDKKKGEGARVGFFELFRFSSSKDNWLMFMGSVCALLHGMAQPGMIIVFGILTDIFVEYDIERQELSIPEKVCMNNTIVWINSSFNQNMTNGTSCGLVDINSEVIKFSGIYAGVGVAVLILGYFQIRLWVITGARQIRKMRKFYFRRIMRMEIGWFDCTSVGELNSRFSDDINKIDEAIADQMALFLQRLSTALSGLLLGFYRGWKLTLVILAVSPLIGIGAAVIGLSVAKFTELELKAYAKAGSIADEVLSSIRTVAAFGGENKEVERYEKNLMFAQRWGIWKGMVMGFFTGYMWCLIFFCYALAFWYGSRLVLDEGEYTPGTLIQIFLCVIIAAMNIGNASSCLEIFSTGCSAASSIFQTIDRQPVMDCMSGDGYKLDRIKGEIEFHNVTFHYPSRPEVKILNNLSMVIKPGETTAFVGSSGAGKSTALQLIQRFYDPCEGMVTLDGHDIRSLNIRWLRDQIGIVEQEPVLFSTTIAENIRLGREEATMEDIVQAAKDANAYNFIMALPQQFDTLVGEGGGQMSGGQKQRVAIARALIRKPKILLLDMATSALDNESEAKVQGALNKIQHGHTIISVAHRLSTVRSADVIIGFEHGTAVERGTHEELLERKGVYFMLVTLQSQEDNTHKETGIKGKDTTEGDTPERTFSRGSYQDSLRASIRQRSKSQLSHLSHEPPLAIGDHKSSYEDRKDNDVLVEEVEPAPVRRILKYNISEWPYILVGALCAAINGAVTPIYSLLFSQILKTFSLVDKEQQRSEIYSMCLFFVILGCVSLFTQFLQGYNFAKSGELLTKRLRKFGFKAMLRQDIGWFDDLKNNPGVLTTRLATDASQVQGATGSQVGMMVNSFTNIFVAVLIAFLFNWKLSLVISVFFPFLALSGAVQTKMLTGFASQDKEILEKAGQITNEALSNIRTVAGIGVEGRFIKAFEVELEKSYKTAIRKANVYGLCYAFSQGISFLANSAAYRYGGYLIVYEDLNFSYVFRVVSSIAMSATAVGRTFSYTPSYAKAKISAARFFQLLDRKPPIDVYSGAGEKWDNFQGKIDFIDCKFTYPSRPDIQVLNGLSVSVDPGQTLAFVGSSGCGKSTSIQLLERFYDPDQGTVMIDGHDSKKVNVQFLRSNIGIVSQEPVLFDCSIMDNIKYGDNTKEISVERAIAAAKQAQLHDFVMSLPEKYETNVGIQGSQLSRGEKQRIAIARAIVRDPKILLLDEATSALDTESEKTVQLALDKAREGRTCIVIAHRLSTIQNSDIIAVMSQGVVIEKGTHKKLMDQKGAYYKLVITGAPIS
The procedure: (§1) Measurement of the vesicular transport activity in case of Bsep: The transport activity measurements were carried out with purified membrane vesicles containing human, rat or mouse Bsep (ABCB11, sPgp) transporter isolated from baculovirus infected Sf9 (Spodoptera frugiperda)cells. The membrane preparations contain 5-16% closed, inside-out oriented, membrane vesicles. The transporter pumps the molecules inside of these vesicles. The vesicles can be separated by rapid filtration of the membrane suspension through a glass filter or through a nitrocellulose membrane (using vacuum).
(§2) The quantitative determination of the transported molecule can be done in several ways, like: HPLC, LC/MS, but also fluorescent or radioactive labeling is also suitable. Tritium labeled substrates were used in the assays and the mode of detection was liquid-scintillation.
(§3) Assay Design and Main Steps for Bsep • Prepare an appropriate concentration of membrane suspension in assay buffer; add the unlabeled and ^3H-labeled substrates to the suspension.

Data set [2] has as its target humanBSEP (Homo sapiens, UniProt O95342). Here is the method: as §1, §2, §3
The target of data set [3] is ratBsep (Rattus norvegicus, UniProt O70127). Here is the method: as §1, §2, §3
Sequence of ratBsep (O70127 whole entry): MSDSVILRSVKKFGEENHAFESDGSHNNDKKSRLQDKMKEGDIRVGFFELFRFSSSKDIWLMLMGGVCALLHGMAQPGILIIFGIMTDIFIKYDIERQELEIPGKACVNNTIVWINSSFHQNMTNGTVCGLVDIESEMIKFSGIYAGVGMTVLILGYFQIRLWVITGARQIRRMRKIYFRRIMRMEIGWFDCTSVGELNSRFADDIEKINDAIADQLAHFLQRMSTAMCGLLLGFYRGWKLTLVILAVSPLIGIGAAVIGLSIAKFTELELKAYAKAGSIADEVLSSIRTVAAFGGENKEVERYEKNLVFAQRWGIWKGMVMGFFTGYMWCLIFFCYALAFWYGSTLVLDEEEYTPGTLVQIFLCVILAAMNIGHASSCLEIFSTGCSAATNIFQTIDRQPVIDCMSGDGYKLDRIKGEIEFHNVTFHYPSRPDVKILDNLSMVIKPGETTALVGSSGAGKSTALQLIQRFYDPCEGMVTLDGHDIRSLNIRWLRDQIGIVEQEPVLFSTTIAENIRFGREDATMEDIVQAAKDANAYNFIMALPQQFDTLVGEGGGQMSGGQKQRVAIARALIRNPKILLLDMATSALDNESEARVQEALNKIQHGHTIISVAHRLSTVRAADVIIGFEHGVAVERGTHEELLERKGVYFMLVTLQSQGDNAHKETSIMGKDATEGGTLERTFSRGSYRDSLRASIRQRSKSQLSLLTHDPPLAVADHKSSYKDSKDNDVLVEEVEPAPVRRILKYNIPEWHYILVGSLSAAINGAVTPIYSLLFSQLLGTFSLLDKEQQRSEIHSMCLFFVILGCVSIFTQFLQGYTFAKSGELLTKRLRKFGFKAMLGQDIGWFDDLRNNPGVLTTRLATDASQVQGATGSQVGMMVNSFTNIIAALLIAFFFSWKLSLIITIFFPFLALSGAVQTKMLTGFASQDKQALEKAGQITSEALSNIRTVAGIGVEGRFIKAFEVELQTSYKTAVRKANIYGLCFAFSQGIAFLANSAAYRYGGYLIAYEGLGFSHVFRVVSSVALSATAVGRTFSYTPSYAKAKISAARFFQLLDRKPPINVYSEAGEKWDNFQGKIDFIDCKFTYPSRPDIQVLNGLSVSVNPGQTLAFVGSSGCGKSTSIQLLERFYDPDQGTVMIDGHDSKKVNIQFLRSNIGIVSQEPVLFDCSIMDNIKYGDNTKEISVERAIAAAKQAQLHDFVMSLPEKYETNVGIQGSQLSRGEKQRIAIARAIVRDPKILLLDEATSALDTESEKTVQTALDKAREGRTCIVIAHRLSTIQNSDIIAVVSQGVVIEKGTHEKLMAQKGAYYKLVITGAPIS
In data set [4] the target is T2, wild-type ABCG2 (Homo sapiens, UniProt Q9UNQ0).
T2 sequence (Q9UNQ0 1-655): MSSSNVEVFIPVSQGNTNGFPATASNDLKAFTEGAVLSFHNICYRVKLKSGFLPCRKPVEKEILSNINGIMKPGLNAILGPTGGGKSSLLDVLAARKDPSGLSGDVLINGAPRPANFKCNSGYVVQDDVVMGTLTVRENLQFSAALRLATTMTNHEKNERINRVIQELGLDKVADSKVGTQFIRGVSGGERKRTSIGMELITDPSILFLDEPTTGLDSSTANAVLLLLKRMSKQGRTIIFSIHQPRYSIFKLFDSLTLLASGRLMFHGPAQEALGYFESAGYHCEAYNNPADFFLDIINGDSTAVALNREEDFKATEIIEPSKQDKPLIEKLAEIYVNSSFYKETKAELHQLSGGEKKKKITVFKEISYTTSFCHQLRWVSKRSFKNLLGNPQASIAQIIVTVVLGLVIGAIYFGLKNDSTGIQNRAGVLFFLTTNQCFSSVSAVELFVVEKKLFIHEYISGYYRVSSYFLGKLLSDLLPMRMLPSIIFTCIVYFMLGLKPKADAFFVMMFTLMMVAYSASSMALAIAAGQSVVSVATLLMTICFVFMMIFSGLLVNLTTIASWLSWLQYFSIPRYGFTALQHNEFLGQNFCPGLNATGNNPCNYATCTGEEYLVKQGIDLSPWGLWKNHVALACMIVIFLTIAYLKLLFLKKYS
To be noted: 2 min.
Protocol: Following UV-irradiation, gel-electrophoresis and electroblotting, the labeled bands were visualized by Phospho-Imager.
Isolated Sf9 cell membranes, containing the same amount of wild-type ABCG2 protein were loaded with cholesterol by preincubation with 4 mM C-CD, as described in the Methods. Cholesterol-loaded membrane vesicles contained 50 μg cholesterol/mg membrane protein, while the control membranes contained 8 μg cholesterol/mg membrane protein.

Data set [5] addresses T2, wild-type ABCG2. The data set can be described thus: Vesicular transport assay, inside-out ABCG2-Sf9 membrane vesicles. The procedure: Measurement of the vesicular transport activity: The transport activity measurements were carried out with purified membrane vesicles containing ABCG2 or Bsep isolated from baculovirus infected Sf9 (Spodoptera frugiperda) cells or mammalian (ABCG2-M) cells. The membrane preparations contain 5-16% closed, inside-out oriented, membrane vesicles. The transporter pumps the molecules inside of these vesicles. The vesicles can be separated by rapidly filtrating of the membrane suspension through a glass filter or through a nitrocellulose membrane (using vacuum).
as §2
Measurement of the vesicular transport activity in case of ABCG2: More closely, as examples, inside-out membrane vesicles were incubated in the presence or absence of 4 mM ATP. […] The transport was stopped by addition of cold wash buffer (40 mM MOPS-Tris (pH 7.0), 70 mM KCl).
The transport was stopped by addition of cold wash buffer (10 mM Tris-HCl, pH 7.4; 250 mM sucrose and 100 mM NaCl).
For estrone-3-sulfate vesicular transport 10 mM Tris-HCl, (pH 7.4), 250 mM sucrose, and 10 mM MgCl2 containing buffer were incubated at 32° C. for 1 min. The transport was stopped by addition of cold wash buffer (10 mM Tris-HCl, pH 7.4; 250 mM sucrose and 100 mM NaCl).
The incubation mix was then rapidly filtered through class B glass fiber filters (pore size, 0.1 μm). Filters were washed with 5×200 μl of ice cold wash buffer and radioactivity retained on the filter was measured by liquid scintillation counting. ATP-dependent transport was calculated by subtracting the values obtained in the absence of ATP from those in the presence of ATP.
Exemplary Assay Design and Main Steps for ABCG2 • Prepare an appropriate concentration of membrane suspension in assay buffer; add the unlabeled and ^3H-labeled substrates to the suspension.

The target of data set [6] is T3, ABCG2-R482T (Homo sapiens, UniProt Q9UNQ0, R482T).
T3 construct: made in house; host or cells: Sf9 cells infected with recombinant baculovirus
T3 sequence (Q9UNQ0 1-655 R482T): T2 sequence (Q9UNQ0 1-655) with R482T
The data set can be described thus: Vesicular MTX transport, Sf9 vesicles with R482T variant. It counts as biochemical. The settings on record: irrespective of the membrane cholesterol content.

The target of data set [7] is T4, R482G-ABCG2 (Homo sapiens, UniProt Q9UNQ0, R482G).
T4 construct: made in house; host or cells: Sf9 cells infected with recombinant baculovirus
T4 sequence (Q9UNQ0 1-655 R482G): T2 sequence (Q9UNQ0 1-655) with R482G
The data set can be described thus: Vesicular MTX transport, Sf9 vesicles with R482G variant. The format is biochemical. To be noted: control and cholesterol-loaded Sf9 membrane vesicles. Here is the method: MTX uptake was measured at 100 μM MTX concentration for 5 min at 37° C. in membrane vesicles containing the human wild-type ABCG2 (WT), or R482G-ABCG2 (G) transporter.
MTX and ESG uptake was measured for 5 min at 37° C. at 5 mM ATP in membrane vesicles containing the human wild-type ABCG2 (WT), or R482G-ABCG2 (G) transporter. […] The mean values±SD are presented.
Vesicular transport studies: In these experiments we carried out direct, ATP-dependent substrate transport measurements by using isolated inside-out membrane vesicles of ABCG2-expressing Sf9 cells.

In data set [8] the target is T1, mouseBsep. The data set can be described thus: Vanadate sensitive ATPase assay, mouseBsep Sf9 membrane vesicles. The format is biochemical. Further details: made in house; host or cells: baculovirus infected Sf9 (Spodoptera frugiperda) cells. An excerpt:
The samples treated with cholesterol@RAMEB complex were compared with untreated vesicles.

Sequence of humanBSEP (O95342 whole entry): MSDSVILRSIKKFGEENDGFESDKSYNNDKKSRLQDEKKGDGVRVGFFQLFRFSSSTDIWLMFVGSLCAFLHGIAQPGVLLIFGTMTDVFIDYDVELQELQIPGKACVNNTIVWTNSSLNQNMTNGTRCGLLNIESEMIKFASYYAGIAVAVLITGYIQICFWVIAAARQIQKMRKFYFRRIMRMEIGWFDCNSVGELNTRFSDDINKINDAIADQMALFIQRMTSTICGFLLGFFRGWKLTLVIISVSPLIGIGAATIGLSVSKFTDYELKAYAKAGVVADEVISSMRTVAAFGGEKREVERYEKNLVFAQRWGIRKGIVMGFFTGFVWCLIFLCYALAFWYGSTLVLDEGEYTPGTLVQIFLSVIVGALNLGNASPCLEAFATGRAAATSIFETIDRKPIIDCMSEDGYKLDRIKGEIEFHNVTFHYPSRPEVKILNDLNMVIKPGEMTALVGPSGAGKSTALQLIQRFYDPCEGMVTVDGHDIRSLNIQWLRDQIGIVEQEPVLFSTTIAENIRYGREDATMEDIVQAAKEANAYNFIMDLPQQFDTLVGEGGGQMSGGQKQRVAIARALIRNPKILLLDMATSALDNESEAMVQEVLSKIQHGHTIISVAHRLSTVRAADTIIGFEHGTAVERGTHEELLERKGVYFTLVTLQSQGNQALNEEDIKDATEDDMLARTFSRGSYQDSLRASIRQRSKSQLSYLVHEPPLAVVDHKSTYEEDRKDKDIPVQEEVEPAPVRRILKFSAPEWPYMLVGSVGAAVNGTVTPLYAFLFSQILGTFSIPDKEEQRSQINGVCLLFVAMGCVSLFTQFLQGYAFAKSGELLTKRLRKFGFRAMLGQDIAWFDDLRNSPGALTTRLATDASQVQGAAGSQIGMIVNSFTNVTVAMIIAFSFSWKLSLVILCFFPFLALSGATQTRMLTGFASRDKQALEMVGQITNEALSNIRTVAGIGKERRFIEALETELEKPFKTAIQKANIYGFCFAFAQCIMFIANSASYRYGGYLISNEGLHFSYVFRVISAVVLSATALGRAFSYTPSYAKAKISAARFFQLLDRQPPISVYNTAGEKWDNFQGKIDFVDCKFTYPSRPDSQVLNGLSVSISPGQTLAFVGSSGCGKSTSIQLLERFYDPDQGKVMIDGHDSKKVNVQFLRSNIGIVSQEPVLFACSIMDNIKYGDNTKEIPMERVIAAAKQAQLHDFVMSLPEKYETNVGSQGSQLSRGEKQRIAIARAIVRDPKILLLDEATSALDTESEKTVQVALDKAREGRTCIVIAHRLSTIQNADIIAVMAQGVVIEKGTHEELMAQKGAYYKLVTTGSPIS

Take `C[C@H](CCC(=O)NCCS(=O)(=O)O)[C@H]1CC[C@H]2[C@@H]3[C@H](O)C[C@@H]4C[C@H](O)CC[C@]4(C)[C@H]3C[C@H](O)[C@]12C` [TC, Taurocholic acid]: the “VMAX of taurocholate transport” value in data set [1] (mouseBsep-Sf9 + Chol) is on record as 1843 pmol TC/mg prot/min; in data set [1] (mouseBsep-Sf9 CTRL) it was 1199 pmol TC/mg prot/min; in data set [2] (humanBSEP-Sf9 + Chol), 323 pmol TC/mg prot/min; in data set [2] (humanBSEP-Sf9 CTRL) it was 169.4 pmol TC/mg prot/min; in data set [3] (ratBsep-Sf9 + Chol) it was 121.3 pmol TC/mg prot/min; in data set [3] (ratBsep-Sf9 CTRL) it was 14.54 pmol TC/mg prot/min.
For the compound `CC(C)CCC[C@@H](C)[C@H]1CC[C@H]2[C@@H]3CC=C4C[C@@H](O)CC[C@]4(C)[C@H]3CC[C@]12C` [cholesterol], in data set [4], the “mean relative value of ABCG2 labeling (basic level of nucleotide trapping) after cholesterol loading” value was 105%. Besides, the “Increase of maximum transport rate of ABCG2 by increasing membrane cholesterol levels” value in data set [5] (human) is “up to 20 fold”.
Take `CN(Cc1cnc2nc(N)nc(N)c2n1)c1ccc(C(=O)N[C@@H](CCC(=O)O)C(=O)O)cc1` [methotrexate]: the MTX transport rate entry in data set [6] is recorded as “below 50 pmoles/mg membrane protein/min”. In data set [5], the “Increase of Vmax of vesicular transport by cholesterol loading” value is listed as “six-fold”. Besides, the “MTX transport (in words)” value in data set [7] is recorded as “very low”.
Turning to `C[C@H](CCC(=O)NCCS(=O)(=O)O)[C@H]1CC[C@H]2[C@@H]3[C@H](O)C[C@@H]4C[C@H](O)CC[C@]4(C)[C@H]3CC[C@]12C` [taurochenodeoxycholate], the “Vanadate sensitive ATPase activity in the presence of the substrate” value turned out to be 39 nmol Pi/mg prot/min in data set [8] (cholesterol loaded mouseBsep vesicles, basal 4.7) and 64 nmol Pi/mg prot/min in data set [8] (untreated mouseBsep vesicles, basal 37).
